# According to patent US20110178118A1, “PALONOSETRON FOR THE TREATMENT OF CHEMOTHERAPY INDUCED EMESES” (priority 2002, published 2011):
# Like-named read-outs stand apart in the source and are kept apart here. Marks after values point to notes of the source that are not given here.
# Legend:
# cisplatin-induced emesis [1] = assay: Duration of action in cisplatin-treated dogs; type: in vivo
# Method: Mean numbers of episodes were computed and the statistical significance of differences between treatment groups were determined with Dunnett's t test. Solutions of palonosetron and comparator drugs (ondansetron and granisetron) were prepared in distilled water. Vehicle control groups received distilled water.
# cisplatin-induced emesis [2] = assay: Systemic exposure study: effects on cisplatin-induced emesis; type: in vivo, dogs; settings: 30 minutes prior to cisplatin, oral, table title says intravenous
# Method: An experiment was conducted to study the relationship between plasma concentration of palonosetron and protection of dogs against cisplatin-induced emesis. Groups of dogs received oral doses of palonosetron (0, 100, 316, or 1000 μg/kg) or vehicle control 30 minutes prior to the injection of cisplatin.
# cisplatin-induced emesis [3] = assay: Anti-emetic effect, oral antiemetic one hour before cisplatin; type: in vivo, dogs; settings: for Emetic Episodes (mean ± SD): observed five hours
# Method: The antiemetic effects of intravenously and orally administered palonosetron were assessed in male and female dogs (sexes combined). Antineoplastic agents employed in these experiments included cisplatin (3 mg/kg)), dacarbazine (30 mg/kg), mechlorethamine (0.4 mg/kg) and actinomycin D (0.15 mg/kg). […] Mean numbers of episodes were computed and the statistical significance of differences between treatment groups were determined with Dunnett's t test. Solutions of palonosetron and comparator drugs (ondansetron and granisetron) were prepared in distilled water. Vehicle control groups received distilled water. The observation of potency differential was further seen during an experiment in which oral dose-response relationships of palonosetron and ondansetron were compared in cisplatin-treated dogs. Palonosetron, ondansetron or vehicle control were administered by the oral route one hour prior to the administration of cisplatin. Each animal was observed continuously for five hours following cisplatin administration for the number of emetic episodes.
# [4] = tested on: Actinomycin D-Induced Emesis; assay: Antagonism of actinomycin D-induced emesis; type: in vivo, dogs; settings: for Emetic Episodes (mean ± SD): 2 hours prior to actinomycin D 0.15 mg/kg IV, observed 5 hours
# [5] = tested on: Mechlorethamine-Induced Emesis; type: in vivo, dogs; settings: for Emetic Episodes (mean ± SD): 2 hours prior to mechlorethamine 0.4 mg/kg IV, observed 5 hours
# [6] = tested on: Highly Emetogenic Chemotherapy-Induced Nausea and Vomiting; assay: Phase II dose-ranging trial, single I.V. palonosetron, efficacy; settings: for % CR(Day 5): 5-day complete response; for % CR(24 hr): complete response (no emesis, no rescue)
# Method: (§1) A randomized, double-blind, multicenter, dose-ranging Phase II trial was performed to identify the dose response relationship among single I.V. doses of palonosetron. Patients receiving highly emetogenic chemotherapy including cyclophosphamide (>1100 mg/m2) and cisplatin (>70 mg/m2), commonly associated with delayed emesis, were assigned to one of five dose groups of a single I.V. administration of palonosetron. Palonosetron was administered alone (without dexamethasone) as a 30 second intravenous injection, 30 minutes prior to chemotherapy administration. The primary endpoint was 24-hour complete responses (no emesis, no rescue) (CR). Secondary endpoints included complete control (no emesis, no rescue, mild nausea) (CC) and 5-day CR.
# (§2) 161 patients (32 women, 129 men) participated.
# cisplatin-induced emesis [7] = assay: Reversal of cisplatin-induced emesis, intravenous antiemetic one hour after cisplatin; type: in vivo, dogs; settings: for Emetic Episodes (mean ± SD): observed five hours
# Method: The antiemetic effects of intravenously and orally administered palonosetron were assessed in male and female dogs (sexes combined). Antineoplastic agents employed in these experiments included cisplatin (3 mg/kg)), dacarbazine (30 mg/kg), mechlorethamine (0.4 mg/kg) and actinomycin D (0.15 mg/kg). […] Mean numbers of episodes were computed and the statistical significance of differences between treatment groups were determined with Dunnett's t test. Solutions of palonosetron and comparator drugs (ondansetron and granisetron) were prepared in distilled water. Vehicle control groups received distilled water. In a different study, palonosetron and ondansetron were assessed for their relative abilities to reverse cisplatin-induced emesis. In these experiments dogs received intravenous injections of palonosetron, ondansetron, or vehicle one hour after the intravenous administration of 3.0 mg/kg cisplatin. Each animal was observed continuously for five hours following cisplatin administration for the number of emetic episodes.
# [8] = tested on: Dacarbazine-Induced Emesis; assay: Antagonism of dacarbazine-induced emesis; type: in vivo, dogs; settings: for Emetic Episodes (mean ± SD): 2 hours prior to dacarbazine 30.0 mg/kg IV, observed 5 hours
# cisplatin-induced emesis [9] = assay: Intravenous palonosetron vs ondansetron in cisplatin-treated dogs; type: in vivo; settings: 0.1 mg/kg intravenous; five-hour period following cisplatin 3.0 mg/kg
# Method: The antiemetic effects of intravenously and orally administered palonosetron were assessed in male and female dogs (sexes combined). Antineoplastic agents employed in these experiments included cisplatin (3 mg/kg)), dacarbazine (30 mg/kg), mechlorethamine (0.4 mg/kg) and actinomycin D (0.15 mg/kg). […] Mean numbers of episodes were computed and the statistical significance of differences between treatment groups were determined with Dunnett's t test. Solutions of palonosetron and comparator drugs (ondansetron and granisetron) were prepared in distilled water. Vehicle control groups received distilled water. The therapeutic effects of intravenously and orally administered palonosetron were compared to those of ondansetron and vehicle in cisplatin-treated dogs.
# [10] = in vivo
# Method: as §1, §2
# [11] = intravenous antiemetic 0.001 mg/kg
# [12] = intravenous antiemetic 0.003 mg/kg
# [13] = intravenous antiemetic 0.01 mg/kg
# [14] = intravenous antiemetic 0.03 mg/kg
# [15] = intravenous or oral route, stated for all three antineoplastic agents
# [16] = palonosetron 0.3-1 mcg/kg single I.V.
# [17] = palonosetron 3 mcg/kg single I.V.
# [18] = palonosetron 10 mcg/kg single I.V.
# [19] = palonosetron 30 mcg/kg single I.V.
# [20] = palonosetron 90 mcg/kg single I.V.
smiles,measurement,setting,value
"Cl.O=C1c2cccc3c2[C@H](CCC3)CN1[C@@H]1CN2CCC1CC2 [Palonosetron, (3aS)-2,3,3a,4,5,6-Hexahydro-2-[(S)-1-Azabicyclo[2.2.2]oct-3-yl]2,3,3a,4,5,6-hexahydro-1-oxo-1Hbenz[de]isoquinoline hydrochloride]",longest pretreatment time before cisplatin with antiemetic activity,cisplatin-induced emesis [1]; 0.1 mg/kg IV,10 h
same,Emetic Episodes (mean ± SD),"cisplatin-induced emesis [1]; 0.1 mg/kg IV, 1 hr pre-cisplatin 3.0 mg/kg IV",1.33 ± 1.03^b
same,Emetic Episodes (mean ± SD),"cisplatin-induced emesis [1]; 0.1 mg/kg IV, 2 hr pre-cisplatin 3.0 mg/kg IV",2.50 ± 2.43^b
same,Emetic Episodes (mean ± SD),"cisplatin-induced emesis [1]; 0.1 mg/kg IV, 4 hr pre-cisplatin 3.0 mg/kg IV",0.33 ± 0.52^b
same,Emetic Episodes (mean ± SD),"cisplatin-induced emesis [1]; 0.1 mg/kg IV, 6 hr pre-cisplatin 3.0 mg/kg IV",5.83 ± 4.40^b
same,Emetic Episodes (mean ± SD),"cisplatin-induced emesis [1]; 0.1 mg/kg IV, 8 hr pre-cisplatin 3.0 mg/kg IV",9.50 ± 5.50^b
same,Emetic Episodes (mean ± SD),"cisplatin-induced emesis [1]; 0.1 mg/kg IV, 10 hr pre-cisplatin 3.0 mg/kg IV",9.83 ± 4.79^b
same,Emetic Episodes (mean ± SD),"cisplatin-induced emesis [1]; 0.1 mg/kg IV, 12 hr pre-cisplatin 3.0 mg/kg IV",13.17 ± 6.27
same,"protective effects, pretreatment time prior to cisplatin","cisplatin-induced emesis [1]; earlier experiment, 0.03 mg/kg, compared with ondansetron 0.3 mg/kg IV (as long as seven hours)",similarly effective
same,Emetic Episodes (mean ± SD),cisplatin-induced emesis [2]; palonosetron 100 μg/kg,1.83 ± 1.60^b
same,Emetic Episodes (mean ± SD),cisplatin-induced emesis [2]; palonosetron 316 μg/kg,4.50 ± 6.83^b
same,Emetic Episodes (mean ± SD),cisplatin-induced emesis [2]; palonosetron 1000 μg/kg,5.67 ± 5.32^b
same,Emetic Episodes (mean ± SD),cisplatin-induced emesis [3]; oral dose 0.3 μg/kg one hour before cisplatin,12.16 ± 1.94
same,Emetic Episodes (mean ± SD),cisplatin-induced emesis [3]; oral dose 1.0 μg/kg one hour before cisplatin,12.83 ± 4.70
same,Emetic Episodes (mean ± SD),cisplatin-induced emesis [3]; oral dose 3.0 μg/kg one hour before cisplatin,16.16 ± 5.11
same,Emetic Episodes (mean ± SD),cisplatin-induced emesis [3]; oral dose 10.0 μg/kg one hour before cisplatin,4.00 ± 3.79^a
same,Emetic Episodes (mean ± SD),cisplatin-induced emesis [3]; oral dose 30.0 μg/kg one hour before cisplatin,2.66 ± 1.75^a
same,Emetic Episodes (mean ± SD),cisplatin-induced emesis [3]; oral dose 100.0 μg/kg one hour before cisplatin,0.00 ± 0.00^a
same,Emetic Episodes (mean ± SD),cisplatin-induced emesis [3]; oral dose 300.0 μg/kg one hour before cisplatin,1.67 ± 2.04^a
same,minimally effective dose (significant reduction in episodes),"cisplatin-induced emesis [3]; oral, one hour before cisplatin",10 µg/kg
same,Emetic Episodes (mean ± SD),[4]; [11],10.00 ± 0.54^c
same,Emetic Episodes (mean ± SD),[4]; [12],10.83 ± 2.04 ^
same,Emetic Episodes (mean ± SD),[4]; [13],7.17 ± 3.06^d
same,Emetic Episodes (mean ± SD),[4]; [14],5.17 ± 4.45^d
same,potency relative to ondansetron,[4]; [15],at least 10 times
same,Emetic Episodes (mean ± SD),[4]; oral antiemetic 0.003 mg/kg,5.83 ± 1.47^d
same,Emetic Episodes (mean ± SD),[4]; oral antiemetic 0.01 mg/kg,6.67 ± 3.83^d
same,Emetic Episodes (mean ± SD),[4]; oral antiemetic 0.03 mg/kg,3.33 ± 4.55^d
same,Emetic Episodes (mean ± SD),[4]; oral antiemetic 0.1 mg/kg,1.00 ± 1.67^d
same,Emetic Episodes (mean ± SD),[5]; [11],7.67 ± 5.05
same,Emetic Episodes (mean ± SD),[5]; [12],6.00 ± 4.29
same,Emetic Episodes (mean ± SD),[5]; [13],3.00 ± 3.52^d
same,Emetic Episodes (mean ± SD),[5]; [14],0.17 ± 0.41^d
same,potency relative to ondansetron,[5]; [15],at least 10 times
same,Emetic Episodes (mean ± SD),[5]; oral antiemetic 0.003 mg/kg,4.50 ± 3.51^c
same,Emetic Episodes (mean ± SD),[5]; oral antiemetic 0.01 mg/kg,2.83 ± 1.94^d
same,Emetic Episodes (mean ± SD),[5]; oral antiemetic 0.03 mg/kg,0.33 ± 0.82^d
same,Emetic Episodes (mean ± SD),[5]; oral antiemetic 0.1 mg/kg,0.00 ± 0.00^d
same,% CR(Day 5),[6]; [16],17%
same,% CR(24 hr),[6]; [16],24%
same,% CR(Day 5),[6]; [17],17%
same,% CR(24 hr),[6]; [17],46%
same,% CR(Day 5),[6]; [18],32%
same,% CR(24 hr),[6]; [18],40%
same,% CR(Day 5),[6]; [19],33%
same,% CR(24 hr),[6]; [19],50* %
same,% CR(Day 5),[6]; [20],20%
same,% CR(24 hr),[6]; [20],46%
same,Emetic Episodes (mean ± SD),cisplatin-induced emesis [7]; intravenous dose 0.3 μg/kg one hour after cisplatin 3.0 mg/kg IV,13.16 ± 6.11 ^
same,Emetic Episodes (mean ± SD),cisplatin-induced emesis [7]; intravenous dose 1.0 μg/kg one hour after cisplatin 3.0 mg/kg IV,7.16 ± 4.26^a
same,Emetic Episodes (mean ± SD),cisplatin-induced emesis [7]; intravenous dose 3.0 μg/kg one hour after cisplatin 3.0 mg/kg IV,4.33 ± 4.03^b
same,Emetic Episodes (mean ± SD),cisplatin-induced emesis [7]; intravenous dose 10.0 μg/kg one hour after cisplatin 3.0 mg/kg IV,4.50 ± 5.24^b
same,Emetic Episodes (mean ± SD),cisplatin-induced emesis [7]; intravenous dose 30.0 μg/kg one hour after cisplatin 3.0 mg/kg IV,1.33 ± 1.21^b
same,Emetic Episodes (mean ± SD),cisplatin-induced emesis [7]; intravenous dose 100.0 μg/kg one hour after cisplatin 3.0 mg/kg IV,1.67 ± 1.83^b
same,Emetic Episodes (mean ± SD),cisplatin-induced emesis [7]; intravenous dose 300.0 μg/kg one hour after cisplatin 3.0 mg/kg IV,3.33 ± 3.01^b
same,statistically minimally effective dose level,"cisplatin-induced emesis [7]; intravenous, one hour after cisplatin",1.0 µg/kg
same,Emetic Episodes (mean ± SD),[8]; [11],10.17 ± 2.04 ^
same,Emetic Episodes (mean ± SD),[8]; [12],6.67 ± 4.13^
same,Emetic Episodes (mean ± SD),[8]; [13],1.67 ± 1.37^d
same,Emetic Episodes (mean ± SD),[8]; [14],0.83 ± 1.17^d
same,potency relative to ondansetron,[8]; [15],at least 10 times
same,Emetic Episodes (mean ± SD),[8]; oral antiemetic 0.003 mg/kg,12.83 ± 6.68 ^
same,Emetic Episodes (mean ± SD),[8]; oral antiemetic 0.01 mg/kg,6.83 ± 4.92^d
same,Emetic Episodes (mean ± SD),[8]; oral antiemetic 0.03 mg/kg,0.33 ± 0.52^d
same,Emetic Episodes (mean ± SD),[8]; oral antiemetic 0.1 mg/kg,0.00 ± 0.00^d
same,mean number of emetic episodes,cisplatin-induced emesis [9],2.20
same,adverse events either mild or moderate,"[10]; both, human",83.9%
same,adverse events not attributed to study medication,"[10]; both, human",86.0%
same,adverse events related to study medication: abdominal pain,"[10]; both, human",2.5%
same,adverse events related to study medication: constipation,"[10]; both, human",8.7%
same,adverse events related to study medication: dizziness,"[10]; both, human",2.5%
same,adverse events related to study medication: headache,"[10]; both, human",19.3%
same,serious drug-related events,[10],No serious drug-related events were reported
